# Test results published in patent publication US20060039985A1, “Methotrexate compositions” (priority 2004, published 2006).
# Legend:
# Assay type in all cases: physicochemical
# [1] = Modulated differential scanning calorimetry (MDSC) study; conditions: MDSC heating, 2° C./minute
# Description: MDSC studies were performed using a TA 2920 instrument (TA instruments, New Castle, Del.). A sample (5-10 mg) of the powder was filled into an aluminum DSC pan in a glove box, with the relative humidity maintained under 1%, and hermetically sealed using a sample encapsulation press. Helium was used as a purge at 30 cm^3/minute; the Refrigerated Control System (RCS) used helium at a flow rate of 110 cm^3/minute. The MDSC protocol was as follows: equilibrate at 0° C.; modulate ±0.318° C. every 60 seconds; ramp 2° C./minute to 200° C.; isothermal for 5 minutes; ramp 10° C./minute to 0° C.; isothermal for 5 minutes; modul 0.318° C. every 60 seconds; ramp 2° C./minute to 280° C.
# [2] = Karl Fisher moisture determination; conditions: Karl Fisher potentiometric titration; powder in formamide; 0.6 % RSD
# Description: Moisture content in methotrexate powder was measured by Karl Fisher potentiometric titration by direct injection using a Mitsubishi model CA-06 moisturemeter (Mitsubishi Kasei Corporation, Japan). The powder was dissolved/dispersed in 2.5 mL formamide and 1 mL of the solution was injected […]. Titration checks were made by injecting water standards, Mitsubishi (catalogue number MC02020), at several time intervals.
# [3] = Dynamic vapor sorption (DVS) study; conditions: 25° C.
# Description: Water sorption/desorption studies were conducted on a DVS-1000 moisture balance system (Surface Measurement Systems, UK). A sample (15-30 mg) was initially dried at 25° C. until a constant weight was achieved. The relative humidity was increased from 0 to 90% (with 5% relative humidity increments). Each successive increment was initiated when the change in weight at a given relative humidity was smaller than 5 μg over 5 minutes. Once the sample was exposed to 90% relative humidity, the process was reversed from 90% to 0 relative humidity (with 10% relative humidity increments).
# [4] = Solubility in REDISPERSE organic solvent (noted in the PLM study)
# Description: PLM and hot stage microscopy studies were done using a Nikon (Melville, N.Y.) Optihot-2 polarizing microscope. A Mettler (Columbus, Ohio) Toledo FP82HT hot stage attachment provided the variable temperature analyses from room temperature to 250° C. at 10° C. per minute. Photomicrographs were taken using a Nikon 35 mm attachment using either a 20× or 40× objective. Microscope slides and coverslips were cleaned with methanol prior to use.
# Birefringence persisted after quench cooling from […]
smiles,measurement,setting,value
CN(Cc1cnc2nc(N)nc(N)c2n1)c1ccc(C(=O)N[C@@H](CCC(=O)O)C(=O)O)cc1 [methotrexate],Decomposition temperature,[1],246-250 °C
same,Moisture content,[2],7.1%
same,Hygroscopicity compared to crystalline material,[3],hygroscopic than the crystalline material
same,Relative humidity at which signs of moisture-induced crystallization are observed in DVS time profile,[3],70 % relative humidity
same,Hysteresis upon desorption of water,[3]; 90% to 0 relative humidity,no hysteresis
same,"Absorption of water, % of its weight",[3]; at 90% relative humidity,about 13.5%
same,Storage relative humidity for long term stability of liquid crystalline phase,[3]; suggested by DVS data,below 70 % relative humidity
same,Solubility in REDISPERSE brand of solvent,[4],insoluble
